According to ChEMBL document CHEMBL1201862, “PubChem BioAssay data set” (2004):
Several values for one entry are separate records, joined by “and”; a condition that tells them apart may be missing. Identical values can stand only once.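 Tested at 5 concentrations; 48 h exposure; 96-well plates; endpoints linearly interpolated, else capped at highest concentration. GI50 marks 50% less growth.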 Activity calls are given as the source filed them. No stated cut-off is given here; in the data, active = GI50 up to about 1.1 µM and inactive = higher.

Columns and labels:
Experiment in all cases: growth of human tumour cells (NCI), 48 h
786-0 = system: 786-0
A549 = system: A549
ACHN = system: ACHN
CAKI-1 = system: CAKI-1
CCRF-CEM = system: CCRF-CEM
COLO 205 = system: COLO 205
DU-145 = system: DU-145
EKVX = system: EKVX
HCC 2998 = system: HCC 2998
HCT-116 = system: HCT-116
HCT-15 = system: HCT-15
HL-60 = system: HL-60
HOP-62 = system: HOP-62
HOP-92 = system: HOP-92
HT-29 = system: HT-29
IGROV-1 = system: IGROV-1
K562 = system: K562
KM12 = system: KM12
LOX IMVI = system: LOX IMVI
M14 = system: M14
MCF7 = system: MCF7
MDA-MB-231 = system: MDA-MB-231
MDA-MB-435 = system: MDA-MB-435
MDA-N = system: MDA-N
MOLT-4 = system: MOLT-4
Malme-3M = system: Malme-3M
NCI-H226 = system: NCI-H226
NCI-H23 = system: NCI-H23
NCI-H460 = system: NCI-H460
NCI-H522 = system: NCI-H522
NCI/ADR-RES = system: NCI/ADR-RES
OVCAR-3 = system: OVCAR-3
OVCAR-4 = system: OVCAR-4
OVCAR-5 = system: OVCAR-5
OVCAR-8 = system: OVCAR-8
PC-3 = system: PC-3
RPMI-8226 = system: RPMI-8226
RXF 393 = system: RXF 393
SF-295 = system: SF-295
SF-539 = system: SF-539
SK-MEL-28 = system: SK-MEL-28
SK-MEL-2 = system: SK-MEL-2
SK-MEL-5 = system: SK-MEL-5
SK-OV-3 = system: SK-OV-3
SN12C = system: SN12C
SNB-19 = system: SNB-19
SNB-75 = system: SNB-75
SR = system: SR
SW-620 = system: SW-620
T47D = system: T47D
TK-10 = system: TK-10
U-251 = system: U-251
UACC-257 = system: UACC-257
UACC-62 = system: UACC-62
UO-31 = system: UO-31
SF-268 = system: SF-268

Cn1c(-c2c(C3=CC(=O)N(c4ccccc4)C3=O)c3ccccc3n2C)cc2ccccc21
GI50 (786-0): > 100 µM (inactive) | GI50 (A549): > 100 µM (inactive) | GI50 (ACHN): > 100 µM (inactive) | GI50 (CAKI-1): > 100 µM (inactive) | GI50 (CCRF-CEM): 18.9 µM (inactive) | GI50 (COLO 205): > 100 µM (inactive) | GI50 (DU-145): > 100 µM (inactive) | GI50 (EKVX): 4.51 µM (inactive) | GI50 (HCC 2998): > 100 µM (inactive) | GI50 (HCT-116): > 100 µM (inactive) | GI50 (HCT-15): > 100 µM | GI50 (HL-60): 45.1 µM (inactive) | GI50 (HOP-62): > 100 µM (inactive) | GI50 (HOP-92): > 100 µM (inactive) | GI50 (HT-29): > 100 µM (inactive) | GI50 (IGROV-1): > 100 µM (inactive) | GI50 (K562): 69.2 µM (inactive) | GI50 (KM12): 21.8 µM (inactive) | GI50 (LOX IMVI): > 100 µM (inactive) | GI50 (M14): > 100 µM (inactive) | GI50 (MCF7): > 100 µM (inactive) | GI50 (MDA-MB-231): > 100 µM (inactive) | GI50 (MDA-MB-435): > 100 µM (inactive) | GI50 (MDA-N): > 100 µM (inactive) | GI50 (MOLT-4): 58.7 µM (inactive) | GI50 (Malme-3M): 7.41 µM (inactive) | GI50 (NCI-H226): > 100 µM (inactive) | GI50 (NCI-H23): > 100 µM (inactive) | GI50 (NCI-H460): > 100 µM (inactive) | GI50 (NCI-H522): 50 µM (inactive) | GI50 (NCI/ADR-RES): > 100 µM (inactive) | GI50 (OVCAR-3): > 100 µM (inactive) | GI50 (OVCAR-4): > 100 µM (inactive) | GI50 (OVCAR-5): > 100 µM (inactive) | GI50 (OVCAR-8): > 100 µM (inactive) | GI50 (PC-3): > 100 µM (inactive) | GI50 (RPMI-8226): 92.7 µM (inactive) | GI50 (RXF 393): 4.4 µM (inactive) | GI50 (SF-295): 34.1 µM (inactive) | GI50 (SF-539): > 100 µM (inactive) | GI50 (SK-MEL-28): > 100 µM (inactive) | GI50 (SK-MEL-2): > 100 µM (inactive) | GI50 (SK-MEL-5): > 100 µM (inactive) | GI50 (SK-OV-3): 4.38 µM (inactive) | GI50 (SN12C): > 100 µM (inactive) | GI50 (SNB-19): > 100 µM (inactive) | GI50 (SNB-75): 55.8 µM (inactive) | GI50 (SR): 17.7 µM (inactive) | GI50 (SW-620): > 100 µM (inactive) | GI50 (T47D): > 100 µM (inactive) | GI50 (TK-10): > 100 µM (inactive) | GI50 (U-251): > 100 µM (inactive) | GI50 (UACC-257): > 100 µM (inactive) | GI50 (UACC-62): > 100 µM (inactive) | GI50 (UO-31): > 100 µM (inactive)

OCC(O)C(O)C(O)C(/C=N\Nc1ncnc2c(Br)cc(Br)cc12)=N/Nc1ncnc2c(Br)cc(Br)cc12 (stereo not given)
GI50 (ACHN): 5.58 µM (inactive) and 6.35 µM (inactive) | GI50 (CAKI-1): 4.85 µM (inactive) and 6.34 µM (inactive) | GI50 (COLO 205): 3.17 µM (inactive) and 3.52 µM (inactive) | GI50 (DU-145): 5.9 µM (inactive) and 3.42 µM (inactive) | GI50 (HT-29): 4.84 µM (inactive) and 4.55 µM (inactive) | GI50 (IGROV-1): 4.71 µM (inactive) and 2.49 µM (inactive) | GI50 (K562): 5.07 µM (inactive) and 5.15 µM (inactive) | GI50 (LOX IMVI): 6.43 µM (inactive) and 10.1 µM (inactive) | GI50 (M14): 8.2 µM (inactive) and 8.38 µM (inactive) | GI50 (MCF7): 1.24 µM (inactive) and 817 nM (active) | GI50 (MDA-MB-231): 3.67 µM (inactive) and 3.79 µM (inactive) | GI50 (MDA-N): 7.46 µM (inactive) and 6.08 µM (inactive) | GI50 (Malme-3M): 6.4 µM (inactive) and 3.76 µM (inactive) | GI50 (NCI-H226): 3.58 µM (inactive) | GI50 (OVCAR-3): 4.28 µM (inactive) and 2.88 µM (inactive) | GI50 (OVCAR-4): 2.81 µM (inactive) and 3.27 µM (inactive) | GI50 (SF-268): 3.78 µM (inactive) and 3.15 µM (inactive) | GI50 (SF-539): 8.85 µM (inactive) | GI50 (SK-MEL-2): 5.41 µM (inactive) and 3.27 µM (inactive) | GI50 (SK-MEL-5): 3.45 µM (inactive) and 4.71 µM (inactive) | GI50 (SR): 3.4 µM (inactive) and 5.25 µM (inactive) | GI50 (SW-620): 5.46 µM (inactive) | GI50 (T47D): 2.57 µM (inactive) and 2.62 µM (inactive) | GI50 (U-251): 2.49 µM (inactive) and 4.46 µM (inactive) | GI50 (UACC-257): 8.15 µM (inactive) and 12.9 µM (inactive)
